We go through five compounds from patent US6121322A, “Azulene derivatives” (Boehringer Mannheim GmbH, priority 1997, dated 2000).

One data set concerns TNFα synthesis. Nature of the data set: TNFα Synthesis Assay (LPS-stimulated human leukocytes, TNFα in supernatant by enzyme immunoassay). The class given is cell-based. The following applies: Leukocyte, 37° C., 2 hours, read-out: TNFα synthesis inhibition in vitro IC50. Here is the method: Experimental Procedure in Vitro
Human leukocytes are obtained from heparinized full blood over a Ficol gradient, washed with RPMI 1640 medium having the prescribed additives and adjusted in the same medium to a cell count of 1×10^6 cells/ml. 20 μl of the substance to be tested in 10-fold concentration, 20 μl of an LPS solution of 4 μg/ml and 160 μl of the adjusted cell suspension are incubated in the individual wells of a 96 well culture plate at 37° C. for 2 hours. The experiments are carried out as double determinations. At the end of the incubation period the plates are carefully shaken and centrifuged. Two samples each of 50 μl are withdrawn from the clear culture supernatant for the analysis of TNFα.
Analysis of TNFα in the Cell Cupernatant by Enzyme Immunoassay
Nunc-Maxisorb plates are coated with a mouse-anti-human-TNFα antibody (1 μg/ml, 50 μl/well, Dianova/Pharmingen 18631D, carbonate buffer pH 9.5) and free binding capacity is saturated with a gelatine- and serum albumin-containing blocking buffer. After washing the plates there are pipetted in double determination in each case 25 μl of the analyte as well as on each plate a series of standard concentrations. For the detection of the analyte, 25 μl of a biotinylated mouse-anti-human-TNFα antibody ([…] 25 μl/well, Dianova/Pharmingen 18642D, blocking buffer) are added and the plates are shaken at room temperature for 2 hours. After washing incubation is carried out with streptavidin-alkaline phosphatase conjugate (50 μl/well) and finally with 4-nitrophenyl phosphate and evaluation is carried out on a photometer. The concentrations of the measured samples are determined using a computer program based on a calibration curve from the co-determined standard concentrations.
Determination of the IC50
The percentage inhibition for the individual sample is calculated by comparing the TNFα concentration obtained for the measured samples with the non-inhibited samples. The IC50 is determined by computer from the concentration relationship of the inhibitor value.

Another data set deals with HIV. The conditions noted are these: cited from earlier work.
The conditions of data set [1]: in vivo; cited from earlier work.
Data set [2] has as its system TNFα. The conditions noted are these: cited from earlier work.
Data set [3] relates to animal models for multiple sclerosis. The following applies: animal experiments; cited from earlier work.
In another data set the test system is PDE4. The following applies: cited from earlier work.
Data set [4] deals with TNFα. The conditions noted are these: in vivo; cited from earlier work.

Molecules are shown by their SMILES. ≈ marks a conversion by molar mass, not a printed value. Entries after “also recorded” stand apart in the source; their conditions may differ.

The IC50 is the midpoint of a concentration-inhibition curve. `CCOC(=O)c1c2ccc(CC(=O)NOCC(=O)N(CCOC)CCOC)ccc-2c(C(=O)OCC)c1N` [Example 4, Diethyl 2-amino-6-{[2-oxo-2-(N,N-bis-2-methoxyethyl-amino)-ethoxycarbamoyl]-methyl}-azulene-1,3-dicarboxylate]: the IC50 with TNFα synthesis is 0.03 µg/mL (≈ 0.0562 µM).

As for `CCOC(=O)c1c2ccc(CC(=O)NOCCN3CCOCC3)ccc-2c(C(=O)OCC)c1N` [Example 20], the IC50 in the data set on TNFα synthesis was found to be 0.05 µg/mL (≈ 0.106 µM).

As to `CCOC(=O)c1c2ccc(CC(=O)NOC(=O)N3CCN(C)CC3)ccc-2c(C(=O)OCC)c1N` [Example 31, Diethyl 2-amino-6-{[(4-methyl-piperazino)-carbonyloxy-carbamoyl]-methyl}-azulene-1,3-dicarboxylate], the IC50 with TNFα synthesis was found to be 0.1 µg/mL (≈ 0.206 µM).

As to `O=C1CCC(N2C(=O)c3ccccc3C2=O)C(=O)N1` (stereo not shown) [Thalidomide], the “suppression of the proliferation of HIV” value with HIV is “supresses the proliferation of HIV”. Besides, in data set [1], the side effects entry was “teratogenic side effects”. For the same compound, the TNFα blockade result in the data set with TNFα [2] is reported as “weak TNFα blockade”.

For `COc1ccc(C2CNC(=O)C2)cc1OC1CCCC1` (stereo not shown) [rolipram], the “activity in animal models for multiple sclerosis” value in data set [3] was “very good activity”. Moreover, the side effects result in data set [1] is listed as “emetic activity; also recorded: massive side effects”. Further, the “inhibition of PDE4” value in the data set with PDE4 is reported as “inhibits PDE4”. For the same compound, in the data set with TNFα [4], the “inhibition of the synthesis of TNFα” value was “inhibition of the synthesis of TNFα in vitro and in vivo”.
